Source: ChEMBL document CHEMBL4261514, “Interaction of indomethacin with calf thymus DNA: a multi-spectroscopic, thermodynamic and molecular modelling approach” (Medchemcomm, 2017)
The source made the active and inactive calls. The rule behind the calls is not given here.

How the values were obtained:
Type in all cases: nucleic-acid assay
Settings in all cases: Bos taurus
Calf thymus DNA [1] = assay: Binding affinity to calf thymus DNA assessed as hyperchromic shift at 281 nm at 50 uM by UV-visible spectrophotometric method
Calf thymus DNA [2] = assay: Binding affinity to calf thymus DNA by UV-visible spectrophotometric method
Calf thymus DNA [3] = assay: Binding affinity to calf thymus DNA assessed as Stern-Volmer quenching constant at 50 uM at pH 7.2 by spectrofluorophotometric method
Calf thymus DNA [4] = assay: Binding affinity to calf thymus DNA assessed as quenching constant at 50 uM at pH 7.2 by spectrofluorophotometric method
Calf thymus DNA [5] = assay: Binding affinity to calf thymus DNA by isothermal calorimetric titration method
Calf thymus DNA [6] = assay: Inhibition of ethidium bromide binding to calf thymus DNA up to 80 uM by fluorescence assay
Calf thymus DNA [7] = assay: Inhibition of acridine orange binding to calf thymus DNA up to 80 uM by fluorescence assay
Calf thymus DNA [8] = assay: Inhibition of Hoechst 33258 binding to calf thymus DNA up to 70 uM by fluorescence assay
Calf thymus DNA [9] = assay: Binding affinity to calf thymus DNA assessed as iodide quenching by measuring reduction in Stern-Volmer quenching constant at 50 uM by fluorescence assay relative to control; parameters: scale not given: the % may be the effect or the level left
Calf thymus DNA [10] = assay: Binding affinity to calf thymus DNA at 50 uM in presence of NaCl by fluorescence assay
Calf thymus DNA [11] = assay: Binding affinity to calf thymus DNA assessed as melting temperature at 50 uM by UV-visible spectroscopic method (reference value: 66.3 +/- 1 degC)
Calf thymus DNA [12] = assay: Binding affinity to calf thymus DNA assessed as change in viscosity at compound to DNA ratio of 0.2 to 1 by viscometry
Calf thymus DNA [13] = assay: Binding affinity to calf thymus DNA assessed as conformational change up to 100 uM by circular dichroism spectral analysis

With `COc1ccc2c(c1)c(CC(=O)O)c(C)n2C(=O)c1ccc(Cl)cc1` the Activity (Calf thymus DNA [1]) was “Active”, the K (Calf thymus DNA [2]) was 9.6 ×10³ L/mol and the KSV (Calf thymus DNA [3]) was 1.1 ×10³ L/mol. The Kq (Calf thymus DNA [4]) was 1.1 ×10¹¹ L/mol/s, the K (Calf thymus DNA [5]) was 5.5 ×10³ /mol and the inhibition (Calf thymus DNA [6]) was “inactive”. For the same molecule, the inhibition (Calf thymus DNA [7]) was “inactive”, the inhibition (Calf thymus DNA [8]) was “Active” and the Activity (Calf thymus DNA [9]) was 19%. The Activity (Calf thymus DNA [10]) was “inactive”, the Tm (Calf thymus DNA [11]) was 68.2 °C and the Activity (Calf thymus DNA [12]) was “inactive”. For the same molecule, the Activity (Calf thymus DNA [13]) was “inactive”.
